Reference: the NIST ThermoML archive (doi:10.1016/j.tca.2019.178383)

Experiment: xn = mol fraction of the nth substance listed
Settings: for surface tension liquid-gas: Maximal bubble pressure; for mass density: 100 kPa, Liquid, Vibrating tube method

CCn1cc[n+](CCOC)c1.O=S(=O)([O-])C(F)(F)F + CC(C)O
Settings	mass density [kg/m3]	surface tension liquid-gas [mN/m]
288.15 K, x1 = 0.0997	929.227	21.4
288.15 K, x1 = 0.2004	1030.66	22.3
288.15 K, x1 = 0.3004	1105.98	23.8
288.15 K, x1 = 0.4003	1163.83	25.5
288.15 K, x1 = 0.5004	1210.18	27.2
288.15 K, x1 = 0.6008	1248.32	28.9
288.15 K, x1 = 0.7	1279.5	30.8
288.15 K, x1 = 0.7998	1306.12	32.8
288.15 K, x1 = 0.9003	1329.28	34.5
288.15 K, x1 = 1	1348.94	36.3
293.15 K, x1 = 0.0997	925.015	21.1
293.15 K, x1 = 0.2004	1026.4	22
293.15 K, x1 = 0.3004	1101.69	23.6
293.15 K, x1 = 0.4003	1159.55	25.3
293.15 K, x1 = 0.5004	1205.9	27
293.15 K, x1 = 0.6008	1244.05	28.6
293.15 K, x1 = 0.7	1275.23	30.6
293.15 K, x1 = 0.7998	1301.86	32.6
293.15 K, x1 = 0.9003	1325.01	34.3
293.15 K, x1 = 1	1344.66	36.1
298.15 K, x1 = 0.0997	920.772	20.7
298.15 K, x1 = 0.2004	1022.12	21.7
298.15 K, x1 = 0.3004	1097.4	23.3
298.15 K, x1 = 0.4003	1155.27	25
298.15 K, x1 = 0.5004	1201.63	26.7
298.15 K, x1 = 0.6008	1239.8	28.4
298.15 K, x1 = 0.7	1270.99	30.4
298.15 K, x1 = 0.7998	1297.61	32.3
298.15 K, x1 = 0.9003	1320.76	34.1
298.15 K, x1 = 1	1340.41	35.8
303.15 K, x1 = 0.0997	916.497	20.3
303.15 K, x1 = 0.2004	1017.82	21.5
303.15 K, x1 = 0.3004	1093.11	23.1
303.15 K, x1 = 0.4003	1150.99	24.8
303.15 K, x1 = 0.5004	1197.38	26.5
303.15 K, x1 = 0.6008	1235.56	28.2
303.15 K, x1 = 0.7	1266.76	30.1
303.15 K, x1 = 0.7998	1293.38	32.1
303.15 K, x1 = 0.9003	1316.53	33.9
303.15 K, x1 = 1	1336.17	35.5
308.15 K, x1 = 0.0997	912.188	20
308.15 K, x1 = 0.2004	1013.52	21.2
308.15 K, x1 = 0.3004	1088.82	22.8
308.15 K, x1 = 0.4003	1146.73	24.6
308.15 K, x1 = 0.5004	1193.13	26.3
308.15 K, x1 = 0.6008	1231.33	28
308.15 K, x1 = 0.7	1262.54	29.8
308.15 K, x1 = 0.7998	1289.17	31.9
308.15 K, x1 = 0.9003	1312.32	33.6
308.15 K, x1 = 1	1331.96	35.3
313.15 K, x1 = 0.0997	907.842	19.7
313.15 K, x1 = 0.2004	1009.19	21
313.15 K, x1 = 0.3004	1084.53	22.6
313.15 K, x1 = 0.4003	1142.47	24.4
313.15 K, x1 = 0.5004	1188.9	26.1
313.15 K, x1 = 0.6008	1227.11	27.8
313.15 K, x1 = 0.7	1258.34	29.6
313.15 K, x1 = 0.7998	1284.98	31.7
313.15 K, x1 = 0.9003	1308.13	33.3
313.15 K, x1 = 1	1327.77	35.1
318.15 K, x1 = 0.0997	903.442	19.4
318.15 K, x1 = 0.2004	1004.85	20.7
318.15 K, x1 = 0.3004	1080.23	22.4
318.15 K, x1 = 0.4003	1138.22	24.2
318.15 K, x1 = 0.5004	1184.68	25.9
318.15 K, x1 = 0.6008	1222.91	27.6
318.15 K, x1 = 0.7	1254.16	29.4
318.15 K, x1 = 0.7998	1280.8	31.5
318.15 K, x1 = 0.9003	1303.96	33.1
318.15 K, x1 = 1	1323.6	34.9
